PMC12821709, “Biomimetic Chromatography as a High-Throughput Tool for Screening Bioaccumulation and Acute Aquatic Toxicity of Pesticides” (Journal of Xenobiotics, 2025)
Converted amounts (≈) assume the structure as drawn. Read-outs that look alike come from different tables or passages of the source.

Experiments:
Daphnia magna = settings: cited from earlier work
[1] = type: physicochemical
Method: All biochromatographic experiments were performed using the gradient IAM protocols developed by Valkó and co-workers and previously implemented in this laboratory. Analyses were carried out on a Prominence-i LC-2030C 3D HPLC system (Shimadzu, Tokyo, Japan) controlled by LabSolutions software (v6.81, Kyoto, Japan) and equipped with an IAM.PC.DD2 column (10 × 4.6 mm, 10.0 µm) packed on the newer ‘Type B’ silica support and protected by a guard column (Regis Technologies, Morton Grove, IL, USA).
Mobile phase A consisted of 50 mM ammonium acetate (VWR International, Leuven, Belgium) in water, adjusted to physiological pH 7.4 with concentrated ammonia solution (Avantor Performance Materials Poland S.A., Gliwice, Poland). Ultrapure water with a resistivity of 18.2 MΩ was obtained from a Milli-Q water purification system (Merck Millipore, Darmstadt, Germany). For phospholipid affinity measurements, mobile phase B was HPLC-grade acetonitrile (Chempur, Piekary Śląskie, Poland). A linear gradient from 0 to 85% B was applied over 5.25 min, followed by an isocratic hold at 85% B for 0.5 min. The mobile phase flow rate was set at 1.5 mL/min, and the column temperature was maintained at 30 °C.
The reference substances used to calculate CHIIAM values were obtained as follows: acetanilide, butyrophenone and octanophenone from Alfa Aesar (Haverhill, MA, USA); acetophenone and paracetamol from Sigma-Aldrich (Steinheim, Germany); and heptanophenone, hexanophenone, propiophenone and valerophenone from Acros Organics (Pittsburgh, PA, USA).
Dimethyl sulfoxide (Avantor Performance Materials Poland S.A., Gliwice, Poland) was used to dissolve the analytes and to prepare stock solutions at a concentration of 200 µg/mL. UV detection was performed in the range 190–300 nm. The injection volume was 5 µL. Each compound was analyzed in duplicate, and the variation in retention times was lower than 2%. Raw retention times for the pesticides and reference standards are available in Zenodo platform https://doi.org/10.5281/zenodo.17672582.

fish = settings: cited from earlier work
[2] = test system: rainbow trout (Oncorhynchus mykiss); settings: 96 h, ref Pesticide Properties DataBase (PPDB; University of Hertfordshire), cited from earlier work
[3] = 48 h, Daphnia magna, ref Pesticide Properties DataBase (PPDB; University of Hertfordshire)
[4] = IAM.PC.DD2 column, gradient 0-85% acetonitrile, 50 mM ammonium acetate pH 7.4, 30 °C
[5] = in fish, dimensionless, ref Pesticide Properties DataBase (PPDB; University of Hertfordshire)

Row | SMILES | EC50 Daphnia (Daphnia magna; [3]) [ng/mL] | CHIIAM (IAM chromatographic hydrophobicity index) [1, 4] | BCF (bioconcentration factor) (fish; [5]) | LC50 Fish [2] [µg/mL] | also measured
1 | Cc1c(COC(=O)[C@@H]2[C@H](/C=C(\Cl)C(F)(F)F)C2(C)C)cccc1-c1ccccc1 (racemic) [Bifenthrin, bifenthrin] | 0.11 (≈ 0.00026 µM) | 54.4 | 1703 | 0.00026 (≈ 0.000615 µM) | CHIIAM (IAM chromatographic hydrophobicity index) ([1]; IAM.PC.DD2 column, gradient 0-85% acetonitrile, 50 mM ammonium acetate pH 7.4, 30 °C, listed as bifenthrin): > 48; LC50 Fish ([2]; listed as bifenthrin): ≈ 0.00026 mg/L
2 | C/C(=N\C#N)N(C)Cc1ccc(Cl)nc1 [Acetamiprid, acetamiprid] | 49800 (≈ 224 µM) | 13.4 | – | 100 (≈ 449 µM) | –
3 | CCNc1nc(Cl)nc(NC(C)C)n1 [Atrazine, atrazine] | 85000 (≈ 394 µM) | 27.4 | 4.3 | 4.5 (≈ 20.9 µM) | EC50 Daphnia (Daphnia magna; 48 h, Daphnia magna, ref Pesticide Properties DataBase (PPDB; University of Hertfordshire), listed as atrazine): ≈ 85 mg/L
4 | COP(=S)(OC)SCn1nnc2ccccc2c1=O [Azinphos-methyl, azinphos-methyl] | 1.1 (≈ 0.00347 µM) | – | 40 | – | –
5 | CO/C=C(/C(=O)OC)c1ccccc1Oc1cc(Oc2ccccc2C#N)ncn1 [Azoxystrobin, azoxystrobin] | 230 (≈ 0.57 µM) | 31.6 | – | 0.47 (≈ 1.17 µM) | –
6 | O=C(Nc1ccccc1-c1ccc(Cl)cc1)c1cccnc1Cl [Boscalid, boscalid] | 5330 (≈ 15.5 µM) | 38.0 | 107 | 2.7 (≈ 7.87 µM) | BCF (bioconcentration factor) (fish; in fish, dimensionless, ref Pesticide Properties DataBase (PPDB; University of Hertfordshire), listed as boscalid): ≈ 107
7 | CNC(=O)Oc1cccc2ccccc12 [Carbaryl, carbaryl] | 6.4 (≈ 0.0318 µM) | – | 44 | – | EC50 Daphnia (Daphnia magna; 48 h, Daphnia magna, ref Pesticide Properties DataBase (PPDB; University of Hertfordshire), listed as carbaryl): ≈ 0.0064 mg/L
8 | CCOP(=S)(OCC)Oc1nc(Cl)c(Cl)cc1Cl [Chlorpyrifos, chlorpyrifos] | 0.1 (≈ 0.000285 µM) | 48.1 | 1374 | 0.025 (≈ 0.0713 µM) | EC50 Daphnia (Daphnia magna; 48 h, Daphnia magna, ref Pesticide Properties DataBase (PPDB; University of Hertfordshire), listed as chlorpyrifos): 0.1 to 1 ng/mL
9 | CCOP(=S)(OCC)Oc1cc(C)nc(C(C)C)n1 [Diazinon, diazinon] | 1 (≈ 0.00329 µM) | 39.3 | 500 | 3.1 (≈ 10.2 µM) | EC50 Daphnia (Daphnia magna; 48 h, Daphnia magna, ref Pesticide Properties DataBase (PPDB; University of Hertfordshire), listed as diazinon): 0.1 to 1 ng/mL
10 | COc1c(Cl)ccc(Cl)c1C(=O)O [Dicamba, dicamba] | – | – | – | 100 (≈ 452 µM) | EC50 Daphnia (Daphnia magna; in vivo): 41000 ng/mL (≈ 185 µM); CHIIAM (IAM chromatographic hydrophobicity index) ([1]; pH 7.4): 8.2; BCF (bioconcentration factor) (fish; in vivo): 15
11 | COP(=S)(OC)Oc1ccc([N+](=O)[O-])c(C)c1 [Fenitrothion, fenitrothion] | 8.6 (≈ 0.031 µM) | 38.1 | 29 | 1.3 (≈ 4.69 µM) | –
12 | CC1(C)C(C(=O)OC(C#N)c2cccc(Oc3ccccc3)c2)C1(C)C (stereo not drawn) [Fenpropathrin, fenpropathrin] | 0.53 (≈ 0.00152 µM) | 48.6 | 1100 | 0.0023 (≈ 0.00658 µM) | LC50 Fish ([2]; listed as fenpropathrin): ≈ 0.0023 mg/L
13 | N#Cc1c[nH]cc1-c1cccc2c1OC(F)(F)O2 [Fludioxonil, fludioxonil] | 400 (≈ 1.61 µM) | 43.5 | 336 | 0.23 (≈ 0.927 µM) | –
14 | CC(C)C1(C)N=C(c2ncccc2C(=O)O)NC1=O (stereo not drawn) [Imazapyr, imazapyr] | 100000 (≈ 383 µM) | −12.1 | 2.54 | 100 (≈ 383 µM) | EC50 Daphnia (Daphnia magna; 48 h, Daphnia magna, ref Pesticide Properties DataBase (PPDB; University of Hertfordshire), listed as imazapyr): ≈ 100 mg/L
15 | O=[N+]([O-])NC1=NCCN1Cc1ccc(Cl)nc1 [Imidacloprid, imidacloprid] | 85000 (≈ 332 µM) | 14.2 | 0.61 | 83 (≈ 325 µM) | BCF (bioconcentration factor) (fish; in fish, dimensionless, ref Pesticide Properties DataBase (PPDB; University of Hertfordshire), listed as imidacloprid): ≈ 0.6
16 | CC1(C)C(C=C(Cl)Cl)C1C(=O)OCc1cccc(Oc2ccccc2)c1 (stereo not drawn) [Permethrin, permethrin] | 0.6 (≈ 0.00153 µM) | 54.8 | 300 | 0.0125 (≈ 0.0319 µM) | –
17 | CCCC1COC(Cn2cncn2)(c2ccc(Cl)cc2Cl)O1 (stereo not drawn) [Propiconazole, propiconazole] | 10200 (≈ 29.8 µM) | 38.7 | 116 | 2.6 (≈ 7.6 µM) | –
18 | CC(C)(C)C(O)(CCc1ccc(Cl)cc1)Cn1cncn1 (stereo not drawn) [Tebuconazole, tebuconazole] | 2790 (≈ 9.06 µM) | 39.5 | 78 | 4.4 (≈ 14.3 µM) | –
19 | CCNc1nc(Cl)nc(NC(C)(C)C)n1 [Terbuthylazine, terbuthylazine] | 21200 (≈ 92.3 µM) | 34.3 | 34 | 2.2 (≈ 9.58 µM) | BCF (bioconcentration factor) (fish; in fish, dimensionless, ref Pesticide Properties DataBase (PPDB; University of Hertfordshire), listed as terbuthylazine): ≈ 34
